In ChEMBL document CHEMBL1201862, “PubChem BioAssay data set” (2004):
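Cells were grown in 96-well plates and exposed to each compound for 48 hours at five concentrations; endpoints were interpolated linearly between bracketing concentrations, or set to the highest concentration if not reached. GI50 marks 50% less growth.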 Activity calls are given as the source filed them. Cut-off read from the data, not from the text of the source: active = GI50 up to about 1.1 µM and inactive = higher.

Experiments:
Assay in all cases: DTP human tumour cell line panel, 48 h
[1] = tested on: HOP-62
[2] = tested on: LOX IMVI
[3] = tested on: KM12
[4] = tested on: NCI-H23
[5] = tested on: M14
[6] = tested on: Malme-3M
[7] = tested on: MOLT-4
[8] = tested on: SW-620
[9] = tested on: COLO 205
[10] = tested on: SNB-19
[11] = tested on: HL-60
[12] = tested on: SK-MEL-28
[13] = tested on: HOP-92
[14] = tested on: SF-295
[15] = tested on: SNB-75
[16] = tested on: NCI-H522

Measured: GI50

O=C(CC1=Nc2nnc(-c3nnc4n3C(=O)C(CC(=O)C3CC3)=N4)n2C1=O)C1CC1
inactive: [1] > 100 µM | [2] > 100 µM | [3] > 100 µM | [4] > 100 µM | [5] > 100 µM | [6] > 100 µM | [7] > 100 µM | [8] > 100 µM | [9] > 100 µM | [10] > 100 µM | [11] > 100 µM | [12] > 100 µM | [13] > 100 µM | [14] > 100 µM | [15] > 100 µM | [16] > 100 µM

COC(=O)/C(=N/Nc1cccc(Cl)c1)C(C(=O)C(=O)Nc1cccc(Cl)c1C)c1nc2ccccc2nc1C (stereo not given)
inactive: [1] 38.3 µM | [3] 80.7 µM | [4] > 100 µM | [5] 53.5 µM | [6] 55 µM | [7] > 100 µM | [8] > 100 µM | [9] > 100 µM | [11] 29.6 µM | [12] 92.3 µM | [14] > 100 µM | [16] > 100 µM

COC[n+]1cc2cc(OC)c(OC)cc2c2ccc3cc(OC)c(OC)cc3c21
inactive: [1] > 100 µM | [2] > 100 µM | [3] > 100 µM | [4] > 100 µM | [5] > 100 µM | [6] > 100 µM | [7] > 100 µM | [8] > 100 µM | [9] > 100 µM | [10] > 100 µM | [11] > 100 µM | [12] > 100 µM | [13] > 100 µM | [14] > 100 µM | [15] > 100 µM | [16] > 100 µM

NCCn1ccc(NC(c2ccccc2)(c2ccccc2)c2ccccc2)nc1=O
inactive: [1] 30.1 µM | [2] 16.4 µM | [3] 21.7 µM | [4] > 10 µM | [6] 18.6 µM | [7] 19 µM | [8] 19.1 µM | [9] 29.8 µM | [10] > 10 µM | [11] 17.7 µM | [12] 20.2 µM | [13] 13.4 µM | [14] 19.8 µM | [15] 16.7 µM | [16] 18.1 µM

CCOC(=O)C1S/C(=N\c2ccccc2)N=C1C (stereo not given)
inactive: [1] > 100 µM | [2] 47.3 µM | [3] > 100 µM | [4] 67.3 µM | [6] > 100 µM | [7] 38.2 µM | [8] > 100 µM | [9] > 100 µM | [10] > 100 µM | [11] 59.6 µM | [12] > 100 µM | [13] 22.3 µM | [14] > 100 µM | [15] 26.9 µM | [16] 44.7 µM

O/N=C\C(=N/O)Nc1ccc(Cc2ccc(NC(/C=N\O)=N/O)cc2)cc1
inactive: [1] 27.4 µM | [2] 40.6 µM | [3] 54 µM | [4] 55.5 µM | [5] 27.5 µM | [6] 24.7 µM | [7] 30.8 µM | [8] 52.1 µM | [9] 54.7 µM | [10] 97.9 µM | [11] 22.5 µM | [12] > 100 µM | [13] 25.8 µM | [14] 21.7 µM | [16] 29.6 µM

COC(=O)/C(=C/c1ccc(OC)cc1)C(C(=O)O)=C(C)C
inactive: [1] > 100 µM | [2] > 100 µM | [3] > 100 µM | [4] > 100 µM | [5] > 100 µM | [6] > 100 µM | [7] > 100 µM | [8] > 100 µM | [9] > 100 µM | [10] > 100 µM | [11] > 100 µM | [12] > 100 µM | [13] > 100 µM | [14] > 100 µM | [16] > 100 µM

COc1ccc(C2NC3=C(CCCC3)N2)cc1
inactive: [1] > 100 µM | [2] 56.4 µM | [3] 54.3 µM | [4] 67 µM | [5] 37.4 µM | [6] 40.4 µM | [7] 59.3 µM | [9] 34 µM | [11] 29 µM | [12] > 100 µM | [13] 54.2 µM | [14] 78 µM | [15] 58.7 µM | [16] 40.2 µM

C1CN2N3CCCC23C1 (stereo not given)
inactive: [1] > 100 µM | [2] > 100 µM | [3] > 100 µM | [4] > 100 µM | [5] > 100 µM | [6] > 100 µM | [7] > 100 µM | [8] > 100 µM | [9] > 100 µM | [10] > 100 µM | [11] > 100 µM | [12] > 100 µM | [14] > 100 µM | [15] > 100 µM | [16] > 100 µM

O=C1C(=O)N(c2ccc(Cl)cc2)C(=O)/C(=N/c2cccc3c(=O)[nH][nH]c(=O)c23)C1c1nc2ccccc2o1 (stereo not given)
inactive: [1] > 100 µM | [2] > 100 µM | [3] > 100 µM | [4] > 100 µM | [5] > 100 µM | [6] > 100 µM | [7] > 100 µM | [8] > 100 µM | [9] > 100 µM | [10] 84.9 µM | [11] > 100 µM | [12] > 100 µM | [13] 84.9 µM | [14] > 100 µM | [15] > 100 µM

NC(C(=O)O)c1ccc(C(=O)O)cc1 (stereo not given)
inactive: [1] > 100 µM | [2] > 100 µM | [3] > 100 µM | [4] > 100 µM | [5] > 100 µM | [6] > 100 µM | [7] > 100 µM | [8] > 100 µM | [9] > 100 µM | [10] > 100 µM | [11] > 100 µM | [12] > 100 µM | [14] > 100 µM | [15] > 100 µM | [16] > 100 µM

O=C(OCc1ccccc1)N1N=NC2C3CC(OCc4ccccc4)(OCc4ccccc4)C(O3)C21 (stereo not given)
inactive: [1] 24.7 µM | [2] 15.1 µM | [3] 36.3 µM | [4] 12.8 µM | [5] 23.6 µM | [6] 16.1 µM | [7] 5.5 µM | [8] 20.6 µM | [9] 23.1 µM | [11] 7.59 µM | [12] 21.3 µM | [13] 12.6 µM | [14] 22.1 µM | [15] 24.3 µM

COC1CC(OS(=O)(=O)c2ccc([N+](=O)[O-])cc2)C(OC(=O)c2ccccc2)C(C)O1 (stereo not given)
inactive: [1] > 100 µM | [2] > 100 µM | [3] > 100 µM | [4] > 100 µM | [5] > 100 µM | [6] > 100 µM | [7] > 100 µM | [8] > 100 µM | [9] > 100 µM | [10] > 100 µM | [11] > 100 µM | [12] > 100 µM | [13] 55.2 µM | [14] > 100 µM | [16] > 100 µM

Cc1cc(NS(=O)(=O)c2ccc(Nc3c4ccccc4nc4c(C(=O)N5CCN(CCOS(C)(=O)=O)CC5)cccc34)cc2)no1
inactive: [1] > 100 µM | [3] > 100 µM | [4] > 100 µM | [5] > 100 µM | [6] > 100 µM | [7] 54.1 µM | [9] > 100 µM | [10] > 100 µM | [11] > 100 µM | [12] > 100 µM | [13] > 100 µM | [14] > 100 µM | [15] > 100 µM

O=C1CCC(=O)C(C(=O)CCC(=O)Nc2cccc(Cl)c2)C1 (stereo not given)
inactive: [1] > 100 µM | [2] > 100 µM | [3] > 100 µM | [4] > 100 µM | [5] > 100 µM | [6] > 100 µM | [7] > 100 µM | [8] > 100 µM | [9] > 100 µM | [10] > 100 µM | [11] > 100 µM | [13] > 100 µM | [14] > 100 µM | [15] > 100 µM | [16] > 100 µM

COC(=O)CSc1nnc(-c2ccccc2)[nH]1
inactive: [1] > 100 µM | [3] > 100 µM | [4] > 100 µM | [5] > 100 µM | [6] > 100 µM | [7] 16.4 µM | [8] > 100 µM | [9] > 100 µM | [10] > 100 µM | [11] > 100 µM | [12] > 100 µM | [13] > 100 µM | [14] > 100 µM | [15] 40.5 µM | [16] > 100 µM

Cc1c(/C=N/N=C/c2[nH]c(C(=O)OC(C)(C)C)c(C)c2C)[nH]c(C(=O)OC(C)(C)C)c1C
inactive: [1] > 100 µM | [2] 61 µM | [3] > 100 µM | [4] > 100 µM | [5] > 100 µM | [6] > 100 µM | [7] > 100 µM | [8] > 100 µM | [9] > 100 µM | [10] > 100 µM | [11] 43.3 µM | [13] 67.8 µM | [14] > 100 µM | [15] 33 µM | [16] 66.5 µM

CCOC(=O)CC1COc2ccc3c(c21)OCO3 (stereo not given)
inactive: [1] > 100 µM | [2] > 100 µM | [3] > 100 µM | [4] > 100 µM | [5] > 100 µM | [6] > 100 µM | [7] > 100 µM | [8] > 100 µM | [9] > 100 µM | [10] > 100 µM | [11] > 100 µM | [12] > 100 µM | [13] > 100 µM | [14] > 100 µM | [15] > 100 µM
